The record followed here is paper PMC6081452, “Downstream Products are Potent Inhibitors of the Heparan Sulfate 2-O-Sulfotransferase” (Scientific Reports, 2018).

Positions count from the first letter of the chain named.

Assay [1] concerns the target T1, non-glyc-HS2ST (non-glycosylated chicken HS2ST), WT (Gallus gallus, UniProt Q76KB1).
T1 construct: made in house; host or cells: E. coli Origami B (DE3)
T1 sequence (Q76KB1 69-356 limits assumed): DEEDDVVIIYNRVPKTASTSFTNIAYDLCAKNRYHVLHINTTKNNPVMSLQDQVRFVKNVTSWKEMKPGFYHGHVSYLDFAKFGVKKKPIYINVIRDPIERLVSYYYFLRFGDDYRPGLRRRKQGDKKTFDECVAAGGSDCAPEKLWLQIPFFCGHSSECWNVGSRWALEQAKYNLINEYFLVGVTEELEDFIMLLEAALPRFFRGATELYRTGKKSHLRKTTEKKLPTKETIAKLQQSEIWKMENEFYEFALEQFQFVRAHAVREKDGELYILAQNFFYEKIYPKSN
Put plainly: BLI equilibrium binding, non-glyc-HS2ST WT. The settings on record: BLI saturation binding curves, biotin-PEG4-linked hexasaccharide on sensor, n = 3, ± standard error of fit; — = response too weak to fit. An excerpt: HS-protein binding studies often utilize biologically-derived oligosaccharides of heterogeneous length and sulfation[34],[35]; however, the synthesis of oligosaccharides with defined length and specific sulfation patterns has recently become possible. We employed biolayer interferometry (BLI) to determine equilibrium surface binding constants (KD) for HS2ST with synthetic HS hexasaccharides (Fig. 1 and Supplementary Table 1). The HS compounds were attached to the BLI biosensor surface to conserve sample and to ensure a significant signal upon protein binding. The HS compounds contained a biotinylated PEG4 linker at the reducing terminus, enhancing the likelihood of a consistent presentation of the linear glycan on the sensor surface, in contrast to immobilizations via intra-chain modifications.
Binding constants were collected for two isoforms of the enzyme; a glycosylated human variant (glyc-HS2ST) expressed in mammalian cell lines, and a highly homologous (96% identity) non-glycosylated chicken isoform expressed in E. coli (non-glyc-HS2ST). […] Thus, the enhanced ligand affinity seen in HS2ST was unexpected and may relate to the specific position of the glycosylation site (N108)[41].
(§1) The chicken HS2ST-Maltose Binding Protein (MBP) fusion protein was expressed and purified according to previous studies. The fusion protein was transformed into E. coli Origami B (DE3) cells, cultured at 37 °C until OD600 reached 0.5, then induced with isopropyl-β-D-thiogalactopyranoside and allowed to grow overnight at 20 °C. Cells were sonicated, followed by a two-step purification procedure. Whole-cell supernatant was passed through an amylose column with Tris buffer (25 mM Tris, 500 mM NaCl, pH 7.5). An elution buffer consisted of Tris Buffer with 40 mM Maltose. The amylose column eluent was concentrated and loaded on a Superdex 200 Increase 10/300 GL with PBS buffer (10 mM sodium phosphate, 150 mM NaCl, pH 7.8) to separate trimeric protein from aggregate and independent MBP (Supplementary Fig. 4). All reported mutations formed homotrimeric complexes according to the SEC profiles, including the negative control (NC = R189A/R80E/R184E). Protein concentration was assessed via UV at 280 nm (MW of trimer ~210 KDa, extinction coefficient ~119,000 M^−1 cm^−1 according to ExPASy ProtParam webtool[56]). The trimeric protein preparation was adjusted to 5% glycerol and stored at −20 °C until use. Additional non-glyc-HS2ST constructs were created with the Q5® Mutagenesis kit (New England Biolabs Inc.; cat. # E0554S) and sequenced at the Georgia Genomics Facility at the University of Georgia.
The Octet® RED96 system (FortéBio Inc.) was employed to detect the affinity of the enzymes for specific HS targets. Due to the small size of the glycan and the deep HS2ST binding cavity, the glycan and protein were treated as ligand and analyte, respectively. Varyingly sulfated HS fragments conjugated to biotin linkers were purchased from Glycan Therapeutics Inc. with purities greater than 93% according to HPLC (sequences located in Supplementary Table 1). The glycans were immobilized onto streptavidin (SA) labeled biosensors (FortéBio; cat. #18–5019) at 0.5 µg/mL. Experiments were performed at 25 °C in PBS Buffer (10 mM sodium phosphate, 150 mM NaCl, pH 7.8) with a final concentration of 1X Pall Kinetics buffer (FortéBio Inc; cat. #18–1092). Fresh biosensors and protein samples were used for each measurement (no regeneration step). […]

For assay [2], the target named is T2, non-glyc-HS2ST H142A (Gallus gallus, UniProt Q76KB1, H142A).
T2 construct: made in house; host or cells: E. coli Origami B (DE3)
T2 sequence (Q76KB1 69-356 H142A limits assumed): T1 sequence (Q76KB1 69-356 limits assumed) with H74A
Put plainly: BLI equilibrium binding, non-glyc-HS2ST H142A. Particulars: BLI saturation binding curves, n = 3, ± standard error of fit. More on the design: species or system chicken.
Text: To assess whether the inhibitory compounds interact with the active site, point mutations were introduced in non-glyc-HS2ST (Fig. 4a). Four mutants of the catalytic residue (H142A/E/R/K) were created, along with a mutation of the residue that facilitates 2-O-sulfation of IdoA residues (R189A)[27]. Additionally, a negative control (NC) was generated containing multiple mutations of positively charged residues (R189A, R80E, and R184E) that reduced the net charge of each protein monomer by 5. The extent that the mutations affected affinity provided an indication that the ligand had been bound in the active site (Table 1 and Supplementary Fig. 1). While R189A markedly diminished the affinity for all compounds, the NC mutations reduced affinity to immeasurable levels. Removal of the catalytic side chain (H142A) enhanced the affinity of each compound, compared to the WT, by approximately 2–3-fold. Addition of a positive charge at this location (H142K/R) further enhanced the affinity for each compound, so much so that a KD value could be measured even for 2. The H142E mutation diminished the affinity of 5 by half compared to WT, but its effects were less significant for binding to 3 or 4.
as §1
The Octet® RED96 system (FortéBio Inc.) was employed to detect the affinity of the enzymes for specific HS targets. […]

As a reminder, the Kd is a measure of binding affinity in units of concentration. The low end stands for higher affinity, the high end for lower affinity.

For the substance “GlcNS6S-GlcA-GlcNS6S-GlcA-GlcNS6S-GlcA~ [Compound 5]”, the dissociation constant (Kd) in assay [1] came out at 72 ± 8 nM; in assay [2], 25 ± 2 nM.
In the same order, the values of “GlcNS6S-GlcA-GlcNS3S6S-IdoA2S-GlcNS6S-GlcA~ [Compound 4]” are 13 ± 3 nM and 10 ± 2 nM.
Consider “GlcNS6S-GlcA-GlcNS6S-IdoA2S-GlcNS6S-GlcA~ [Compound 3]”, for which the Kd is 42 ± 5 nM in assay [1] and 20 ± 3 nM in assay [2].
With “GlcNS-GlcA-GlcNS-IdoA2S-GlcNS-GlcA~ [Compound 2]”, the dissociation constant (Kd) is above 500 nM in assay [1] and 460 ± 91 nM in assay [2].
